Measured values as given in patent US6737383B1, “Herbicidal oxadiazolidines” (priority 1999, dated 2004).

Legend:
surinam grass = assay: Test B pre/postemergence surinam grass; type: in vivo, Brachiaria decumbens; conditions: for B. signalgrass plant response rating: scale of 0 to 10 where 0 is no effect and 10 is complete control
Procedure, shortened: (§1)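 Herbicidal effect was estimated by eye on a ten-point control scale after plants spent twelve to sixteen days in a greenhouse following soil or foliar treatment. Foliar sprays targeted plants at one to four leaves; all doses were formulated in a non-phytotoxic solvent with surfactant.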

soybean = assay: Test B pre/postemergence soybean; type: in vivo, Glycine max; conditions: for Soybean plant response rating: scale of 0 to 10 where 0 is no effect and 10 is complete control
Procedure, shortened: as §1

wheat = assay: Test B pre/postemergence wheat; type: in vivo, Triticum aestivum; conditions: for Wheat plant response rating: scale of 0 to 10 where 0 is no effect and 10 is complete control
Procedure, shortened: as §1

smallflower flatsedge = assay: Test B flood test smallflower flatsedge; type: in vivo, Cyperus difformis
Procedure, shortened: (§2)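 Flood test on plants grown to the 2-leaf stage; treated plants kept in greenhouse twelve to sixteen days, then visually rated against controls on a 0 (no effect) to 10 (complete control) scale.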

blackgrass = assay: Test B pre/postemergence blackgrass; type: in vivo, Alopecurus myosuroides; conditions: for Blackgrass plant response rating: scale of 0 to 10 where 0 is no effect and 10 is complete control
Procedure, shortened: as §1

crabgrass = assay: Test B pre/postemergence crabgrass; type: in vivo, Digitaria sanguinalis; conditions: for Crabgrass plant response rating: scale of 0 to 10 where 0 is no effect and 10 is complete control
Procedure, shortened: as §1

cocklebur = assay: Test B pre/postemergence cocklebur; type: in vivo, Xanthium strumarium; conditions: for Cocklebur plant response rating: scale of 0 to 10 where 0 is no effect and 10 is complete control
Procedure, shortened: as §1

sugar beet = assay: Test B pre/postemergence sugar beet; type: in vivo, Beta vulgaris; conditions: for Sugarbeets plant response rating: scale of 0 to 10 where 0 is no effect and 10 is complete control
Procedure, shortened: as §1

bamyardgrass = assay: Test B flood test barnyardgrass; type: in vivo, Echinochloa crus-galli
Procedure, shortened: as §2

duck salad = assay: Test B flood test duck salad; type: in vivo, Heteranthera limosa
Procedure, shortened: as §2

pigweed = assay: Test B pre/postemergence pigweed; type: in vivo, Amaranthus retroflexus; conditions: for Redroot pigweed plant response rating: scale of 0 to 10 where 0 is no effect and 10 is complete control
Procedure, shortened: as §1

purple nutsedge = assay: Test B pre/postemergence purple nutsedge; type: in vivo, Cyperus rotundus; conditions: for Nutsedge plant response rating: scale of 0 to 10 where 0 is no effect and 10 is complete control
Procedure, shortened: as §1

rape = assay: Test B pre/postemergence rape; type: in vivo, Brassica napus; conditions: for Rape plant response rating: scale of 0 to 10 where 0 is no effect and 10 is complete control
Procedure, shortened: as §1

corn = assay: Test B pre/postemergence corn; type: in vivo, Zea mays; conditions: for Corn plant response rating: scale of 0 to 10 where 0 is no effect and 10 is complete control
Procedure, shortened: as §1

rice = assay: Test B flood test rice; type: in vivo, Oryza sativa
Procedure, shortened: as §2

giant foxtail = assay: Test B pre/postemergence giant foxtail; type: in vivo, Setaria faberii; conditions: for Giant foxtail plant response rating: scale of 0 to 10 where 0 is no effect and 10 is complete control
Procedure, shortened: as §1

[1] = Postemergence, Rate 125 g/ha, scale 0 to 10, 0 is no effect, 10 is complete control
[2] = Postemergence, Rate 250 g/ha, scale 0 to 10, 0 is no effect, 10 is complete control
[3] = Preemergence, Rate 62 g/ha, scale 0 to 10 (0 no effect, 10 complete control)
[4] = Rate 500 g/ha, Postemergence, scale 0 to 10, 0 no effect, 10 complete control
[5] = Rate 62 g/ha, flood test species, Pre-emergence, visual evaluation after twelve to sixteen days
[6] = Rate 125 g/ha, under heading Pre-emergence, flood test species, visual evaluation after twelve to sixteen days
[7] = Rate 250 g/ha, Pre-emergence, flood-test species, scale 0 to 10, 0 is no effect, 10 is complete control
[8] = Rate 500 g/ha, Pre-emergence, flood test species, scale 0 to 10 (0 no effect, 10 complete control)

## CCOc1nc(C(F)(F)F)c(Cn2c(=O)on(C(=O)N(c3ccccc3)C(C)C)c2=O)s1 [Compound 379]
Surinam grass; [1]
  Plant response rating, B. signalgrass: 0
Surinam grass; [2]
  Plant response rating, B. signalgrass: 0
Surinam grass; [3]
  Plant response rating, B. signalgrass: 0
Surinam grass; Preemergence, Rate 125 g/ha
  B. signalgrass plant response rating (0 to 10 scale, 0 is no effect, 10 is complete control): 0
Surinam grass; Preemergence, Rate 250 g/ha
  B. signalgrass plant response rating: 0
Surinam grass; Preemergence, Rate 500 g/ha
  B. signalgrass plant response rating: 0
Surinam grass; Rate 62 g/ha, Postemergence
  B. signalgrass plant response rating: 0
Surinam grass; [4]
  Plant response rating, B. signalgrass: 0
soybean; [1]
  Plant response rating, Soybean: 1
soybean; [2]
  Plant response rating, Soybean: 1
soybean; [3]
  Plant response rating, Soybean: 0
soybean; Preemergence, Rate 125 g/ha
  Soybean plant response rating (0 to 10 scale): 0
soybean; Preemergence, Rate 250 g/ha
  Soybean plant response rating: 0
soybean; Preemergence, Rate 500 g/ha
  Soybean plant response rating: 0
soybean; Rate 62 g/ha, Postemergence
  Soybean plant response rating: 1
soybean; [4]
  Plant response rating, Soybean: 2
wheat; [1]
  Plant response rating, Wheat: 0
wheat; [2]
  Plant response rating, Wheat: 0
wheat; [3]
  Plant response rating, Wheat: 0
wheat; Preemergence, Rate 125 g/ha
  Wheat plant response rating (0 to 10 scale): 0
wheat; Preemergence, Rate 250 g/ha
  Wheat plant response rating: 0
wheat; Preemergence, Rate 500 g/ha
  Wheat plant response rating: 0
wheat; Rate 62 g/ha, Postemergence
  Wheat plant response rating: 0
wheat; [4]
  Plant response rating, Wheat: 0
Smallflower flatsedge; [5]
  Plant response rating, S. Flatsedge (0 to 10 scale, 0 is no effect, 10 is complete control): 0
Smallflower flatsedge; [6]
  S. Flatsedge plant response rating (0 to 10 scale, 0 is no effect, 10 is complete control): 0
Smallflower flatsedge; [7]
  S. Flatsedge plant response rating: 0
Smallflower flatsedge; [8]
  S. Flatsedge plant response rating: 0
blackgrass; [1]
  Plant response rating, Blackgrass: 0
blackgrass; [2]
  Plant response rating, Blackgrass: 0
blackgrass; [3]
  Plant response rating, Blackgrass: 0
blackgrass; Preemergence, Rate 125 g/ha
  Blackgrass plant response rating (0 to 10 scale): 0
blackgrass; Preemergence, Rate 250 g/ha
  Blackgrass plant response rating: 0
blackgrass; Preemergence, Rate 500 g/ha
  Blackgrass plant response rating: 0
blackgrass; Rate 62 g/ha, Postemergence
  Blackgrass plant response rating: 0
blackgrass; [4]
  Plant response rating, Blackgrass: 0
crabgrass; [1]
  Plant response rating, Crabgrass: 0
crabgrass; [2]
  Plant response rating, Crabgrass: 0
crabgrass; [3]
  Plant response rating, Crabgrass: 0
crabgrass; Preemergence, Rate 125 g/ha
  Crabgrass plant response rating (0 to 10 scale): 0
crabgrass; Preemergence, Rate 250 g/ha
  Crabgrass plant response rating: 7
crabgrass; Preemergence, Rate 500 g/ha
  Crabgrass plant response rating: 8
crabgrass; Rate 62 g/ha, Postemergence
  Crabgrass plant response rating: 0
crabgrass; [4]
  Plant response rating, Crabgrass: 0
cocklebur; [1]
  Plant response rating, Cocklebur: 0
cocklebur; [2]
  Plant response rating, Cocklebur: 0
cocklebur; [3]
  Plant response rating, Cocklebur: 0
cocklebur; Preemergence, Rate 125 g/ha
  Cocklebur plant response rating (0 to 10 scale): 0
cocklebur; Preemergence, Rate 250 g/ha
  Cocklebur plant response rating: 0
cocklebur; Preemergence, Rate 500 g/ha
  Cocklebur plant response rating: 0
cocklebur; Rate 62 g/ha, Postemergence
  Cocklebur plant response rating: 0
cocklebur; [4]
  Plant response rating, Cocklebur: 0
Sugar beet; [1]
  Plant response rating, Sugarbeets: 0
Sugar beet; [2]
  Plant response rating, Sugarbeets: 0
Sugar beet; [3]
  Plant response rating, Sugarbeets: 0
Sugar beet; Preemergence, Rate 125 g/ha
  Sugarbeets plant response rating (0 to 10 scale): 0
Sugar beet; Preemergence, Rate 250 g/ha
  Sugarbeets plant response rating: 0
Sugar beet; Preemergence, Rate 500 g/ha
  Sugarbeets plant response rating: 0
Sugar beet; Rate 62 g/ha, Postemergence
  Sugarbeets plant response rating: 0
Sugar beet; [4]
  Plant response rating, Sugarbeets: 0
bamyardgrass; [5]
  Plant response rating, Barnyardgrass (0 to 10 scale, 0 is no effect, 10 is complete control): 0
bamyardgrass; [6]
  Barnyardgrass plant response rating (0 to 10 scale, 0 is no effect, 10 is complete control): 0
bamyardgrass; [7]
  Barnyardgrass plant response rating: 0
bamyardgrass; [8]
  Barnyardgrass plant response rating: 0
Duck salad; [5]
  Plant response rating, Ducksalad (0 to 10 scale, 0 is no effect, 10 is complete control): 0
Duck salad; [6]
  Ducksalad plant response rating (0 to 10 scale, 0 is no effect, 10 is complete control): 0
Duck salad; [7]
  Ducksalad plant response rating: 0
Duck salad; [8]
  Ducksalad plant response rating: 0
pigweed; [1]
  Plant response rating, Redroot pigweed: 0
pigweed; [2]
  Plant response rating, Redroot pigweed: 1
pigweed; [3]
  Plant response rating, Redroot pigweed: 0
pigweed; Preemergence, Rate 125 g/ha
  Redroot pigweed plant response rating (0 to 10 scale): 0
pigweed; Preemergence, Rate 250 g/ha
  Redroot pigweed plant response rating: 0
pigweed; Preemergence, Rate 500 g/ha
  Redroot pigweed plant response rating: 0
pigweed; Rate 62 g/ha, Postemergence
  Redroot pigweed plant response rating: 0
pigweed; [4]
  Plant response rating, Redroot pigweed: 1
Purple nutsedge; [1]
  Plant response rating, Nutsedge: 0
Purple nutsedge; [2]
  Plant response rating, Nutsedge: 0
Purple nutsedge; [3]
  Plant response rating, Nutsedge: 0
Purple nutsedge; Preemergence, Rate 125 g/ha
  Nutsedge plant response rating (0 to 10 scale): 0
Purple nutsedge; Preemergence, Rate 250 g/ha
  Nutsedge plant response rating: 0
Purple nutsedge; Preemergence, Rate 500 g/ha
  Nutsedge plant response rating: 0
Purple nutsedge; Rate 62 g/ha, Postemergence
  Nutsedge plant response rating: 0
Purple nutsedge; [4]
  Plant response rating, Nutsedge: 0
rape; [1]
  Plant response rating, Rape: 0
rape; [2]
  Plant response rating, Rape: 0
rape; [3]
  Plant response rating, Rape: 0
rape; Preemergence, Rate 125 g/ha
  Rape plant response rating (0 to 10 scale): 0
rape; Preemergence, Rate 250 g/ha
  Rape plant response rating: 0
rape; Preemergence, Rate 500 g/ha
  Rape plant response rating: 0
rape; Rate 62 g/ha, Postemergence
  Rape plant response rating: 0
rape; [4]
  Plant response rating, Rape: 0
corn; [1]
  Plant response rating, Corn: 0
corn; [2]
  Plant response rating, Corn: 0
corn; [3]
  Plant response rating, Corn: 0
corn; Preemergence, Rate 125 g/ha
  Corn plant response rating (0 to 10 scale): 0
corn; Preemergence, Rate 250 g/ha
  Corn plant response rating: 0
corn; Preemergence, Rate 500 g/ha
  Corn plant response rating: 0
corn; Rate 62 g/ha, Postemergence
  Corn plant response rating: 0
corn; [4]
  Plant response rating, Corn: 0
rice; [5]
  Plant response rating, Rice (0 to 10 scale, 0 is no effect, 10 is complete control): 0
rice; [6]
  Rice plant response rating (0 to 10 scale, 0 is no effect, 10 is complete control): 0
rice; [7]
  Rice plant response rating: 0
rice; [8]
  Rice plant response rating: 0
Giant foxtail; [1]
  Plant response rating, Giant foxtail: 0
Giant foxtail; [2]
  Plant response rating, Giant foxtail: 2
Giant foxtail; [3]
  Plant response rating, Giant foxtail: 0
Giant foxtail; Preemergence, Rate 125 g/ha
  Giant foxtail plant response rating (0 to 10 scale): 1
Giant foxtail; Preemergence, Rate 250 g/ha
  Giant foxtail plant response rating: 6
Giant foxtail; Preemergence, Rate 500 g/ha
  Giant foxtail plant response rating: 9
Giant foxtail; Rate 62 g/ha, Postemergence
  Giant foxtail plant response rating: 0
Giant foxtail; [4]
  Plant response rating, Giant foxtail: 7
